Patent US9682995B2, “Amino-substituted isothiazoles” (BAYER PHARMA AKTIENGESELLSCHAFT, priority 2013, dated 2017)

How the values were obtained:
[1] = test system: spindle assembly checkpoint; assay: SAC-Formation - Nocodazole-Induced Assay; format: cell-based; conditions: Homo sapiens; HeLa cells, nocodazole 0.1 μg/ml, 24 h, phosphorylated histone H3 on serine 10
Procedure, shortened: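 HeLa cells were given nocodazole at 0.1 μg/ml final together with compounds (0.005–20 μM, 0.5% DMSO) for 24 h at 37° C. Mitotic cells were counted by phospho-histone H3 Ser10 immunostaining, with cell number from HOECHST 33342, by high-content imaging. The loss of mitotic cells was fitted with a four-parameter Hill equation.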

[2] = test system: spindle assembly checkpoint; assay: SAC-Formation - Paclitaxel-Induced Assay; format: cell-based; conditions: Homo sapiens; HeLa cells, paclitaxel 0.05 μM, 24 h, phosphorylated histone H3 on serine 10
Description: The spindle assembly checkpoint assures the proper segregation of chromosomes during mitosis. Upon entry into mitosis, chromosomes begin to condensate which is accompanied by the phosphorylation of histone H3 on serine 10. Dephosphorylation of histone H3 on serine 10 begins in anaphase and ends at early telophase. Accordingly, phosphorylation of histone H3 on serine 10 can be utilized as a marker of cells in mitosis. Nocodazole is a microtubule destabilizing substance. Paclitaxel is a microtubule stabilizing compound. Thus, nocodazole as well as paclitaxel interfere with microtubule dynamics and mobilize the spindle assembly checkpoint. […] The mitotic breakthrough can be detected by the decrease of cells with phosphorylation of histone H3 on serine 10. This decline is used as a marker to determine the capability of compounds of the present invention to induce a mitotic breakthrough. The typical morphological alteration of nuclei with a prematurely completed mitosis after SAC-inhibition can be monitored via image analysis routines supporting those findings.
The nocodazole and paclitaxel variations were used to focus on compounds that are capable of inhibiting a SAC induced by both microtubule destabilization as well as microtubule stabilization. When SAC inducing agents and compounds are given simultaneously, inhibitors that effectively block the SAC during formation or abrogation are identified. When cells are incubated with a SAC inducing agent and the SAC interfering compound is given after a defined time, inhibitors are identified that effectively block SAC abrogation.
Cultivated cells of the human cervical tumor cell line HeLa (ATCC CCL-2) were plated at a density of 1000 cells/well in a 1536-well microtiter plate in 2 μl PAA Ham's F12 Medium supplemented with 1% (v/v) glutamine, 1% (v/v) penicillin, 1% (v/v) streptomycin and 10% (v/v) fetal calf serum. After incubation overnight at 37° C., 10 μl/well paclitaxel at a final concentration of 0.05 μM were added to cells. Test compounds solubilized in dimethyl sulfoxide (DMSO) were added at various concentrations (0 μM, as well as in the range of 0.005 μM-20 μM; the final concentration of the solvent DMSO was 0.5% (v/v)). Cells were incubated for 24 h at 37° C. in the presence of test compounds in combination with paclitaxel. Thereafter, cells were fixed in 4% (v/v) paraformaldehyde in phosphate buffered saline (PBS) at 4° C. overnight then permeabilized in 0.1% (v/v) Triton X™ 100 in PBS at room temperature for 20 min and blocked in 0.5% (v/v) bovine serum albumin (BSA) in PBS at room temperature for 15 min. After washing with PBS, 5 μl/well antibody solution (anti-phospho-histone H3 clone 3H10, FITC; Millipore, Cat #16-222; 1:1000 dilution) was added to cells, which were incubated for 2 h at room temperature. Afterwards, cells were washed with PBS and 5 μl/well solution of HOECHST 33342 dye (5 μg/ml) was added to cells and cells were incubated 15 min at room temperature in the dark. Cells were washed twice with PBS then covered with PBS and stored at 4° C. until analysis. Images were acquired with a PERKIN ELMER OPERA™ High-Content Analysis reader. Images were analyzed with image analysis software MetaXpress™ from Molecular devices utilizing the Mitotic Index application module. In this assay both labels HOECHST 33342 and phosphorylated Histone H3 on serine 10 were measured. HOECHST 33342 labels the DNA and is used to count the cell number. The staining of phosphorylated Histone H3 on serine 10 determines the number of mitotic cells. […] Otherwise cells were arrested at G2/M phase of the cell cycle progression. The raw assay data were further analyzed by four-parametric hill equation using Genedata's Assay Analyzer and Condoseo software.

Row | IC50 [1] | IC50 [2] | Compound
1 | 470 nM | 1000 nM | Cc1nsc(Nc2cnc3ccccc3n2)c1C(=O)Nc1ccc(Oc2ccc(F)cc2F)nc1 [Example 113, N-[6-(2,4-Difluorophenoxy)pyridin-3-yl]-3-methyl-5-(quinoxalin-2-ylamino)-1,2-thiazole-4-carboxamide]
2 | 310 nM | 700 nM | CCOC(=O)c1cnc(Nc2snc(C)c2C(=O)Nc2ccc(OC)nc2)s1 [Example 29, Ethyl 2-({4-[(6-methoxypyridin-3-yl)carbamoyl]-3-methyl-1,2-thiazol-5-yl}amino)-1,3-thiazole-5-carboxylate]
3 | 690 nM | 580 nM | CCc1ccccc1NC(=O)c1c(C)nsc1Nc1nc(C)nc2sccc12 [Example 38, N-(2-Ethylphenyl)-3-methyl-5-[(2-methylthieno[2,3-d]pyrimidin-4-yl)amino]-1,2-thiazole-4-carboxamide]
4 | 5500 nM | > 20000 nM | COC(=O)c1ccc(Nc2snc(C)c2C(=O)Nc2ccc(OC)nc2)nc1 [Example 31, Methyl 6-({4-[(6-methoxypyridin-3-yl)carbamoyl]-3-methyl-1,2-thiazol-5-yl}amino)-nicotinate]
5 | 160 nM | 810 nM | CCc1ccccc1NC(=O)c1c(C)nsc1Nc1cnc2ccc(Cl)cc2n1 [Example 41, 5-[(7-Chloroquinoxalin-2-yl)amino]-N-(2-ethylphenyl)-3-methyl-1,2-thiazole-4-carboxamide]
6 | 59 nM | 880 nM | Cc1nsc(Nc2cnc3ccccc3n2)c1C(=O)Nc1ccc(OC(C)C)nc1 [Example 122, N-(6-Isopropoxypyridin-3-yl)-3-methyl-5-(quinoxalin-2-ylamino)-1,2-thiazole-4-carboxamide]
7 | 92 nM | 320 nM | CCOC(=O)c1sc(Nc2snc(C)c2C(=O)Nc2ccc(OC)nc2)nc1C [Example 30, Ethyl 2-({4-[(6-methoxypyridin-3-yl)carbamoyl]-3-methyl-1,2-thiazol-5-yl}amino)-4-methyl-1,3-thiazole-5-carboxylate]
8 | 16000 nM | > 20000 nM | CCc1ccccc1NC(=O)c1c(C)nsc1Nc1cc(NC)ncn1 [Example 15, N-(2-Ethylphenyl)-3-methyl-5-{[6-(methylamino)pyrimidin-4-yl]amino}-1,2-thiazole-4-carboxamide]
9 | 9800 nM | > 20000 nM | CCc1ccccc1NC(=O)c1c(C)nsc1Nc1nccc(OC)n1 [Example 16, N-(2-Ethylphenyl)-5-[(4-methoxypyrimidin-2-yl)amino]-3-methyl-1,2-thiazole-4-carboxamide]
10 | 680 nM | 1200 nM | CCc1ccccc1NC(=O)c1c(C)nsc1Nc1ccnc(C#N)n1 [Example 6, 5-[(2-Cyanopyrimidin-4-yl)amino]-N-(2-ethylphenyl)-3-methyl-1,2-thiazole-4-carboxamide]
11 | 220 nM | 460 nM | CCOC(=O)c1cnn2ccc(Nc3snc(C)c3C(=O)Nc3ccc(F)c(F)c3)nc12 [Example 55, Ethyl 5-({4-[(3,4-difluorophenyl)carbamoyl]-3-methyl-1,2-thiazol-5-yl}amino)-pyrazolo[1,5-a]pyrimidine-3-carboxylate]
12 | 1800 nM | 20000 nM | CNC(=O)c1ccnc(Nc2snc(C)c2C(=O)Nc2ccc(F)c(F)c2)c1 [Example 108, 2-({4-[(3,4-Difluorophenyl)-carbamoyl]-3-methyl-1,2-thiazol-5-yl}amino)-N-methyliso-nicotinamide]
13 | 41 nM | 72 nM | Cc1nsc(Nc2ccc(C#N)cn2)c1C(=O)Nc1ccc(F)c(F)c1 [Example 28, 5-[(5-Cyanopyridin-2-yl)amino]-N-(3,4-difluorophenyl)-3-methyl-1,2-thiazole-4-carboxamide]
14 | 150 nM | 2000 nM | CCc1ccccc1NC(=O)c1c(C)nsc1Nc1cc(C(F)(F)F)ccn1 [Example 18, N-(2-Ethylphenyl)-3-methyl-5-{[4-(trifluoromethyl)pyridin-2-yl]amino}-1,2-thiazole-4-carboxamide]
15 | 31 nM | 120 nM | Cc1nsc(Nc2cc(C#N)ccn2)c1C(=O)Nc1ccc(Oc2ccc(F)cc2F)nc1 [Example 114, 5-[(4-Cyanopyridin-2-yl)amino]-N-[6-(2,4-difluorophenoxy)pyridin-3-yl]-3-methyl-1,2-thiazole-4-carboxamide]
16 | 1800 nM | 1500 nM | COC(=O)c1cncc(Nc2snc(C)c2C(=O)Nc2ccc(OC)nc2)n1 [Example 101, Methyl 6-({4-[(6-methoxypyridin-3-yl)carbamoyl]-3-methyl-1,2-thiazol-5-yl}amino)pyrazine-2-carboxylate]
17 | 1300 nM | 1300 nM | COc1ccc(NC(=O)c2c(C)nsc2Nc2ccc(C#N)cn2)cn1 [Example 39, 5-[(5-Cyanopyridin-2-yl)amino]-N-(6-methoxypyridin-3-yl)-3-methyl-1,2-thiazole-4-carboxamide]
18 | 140 nM | 250 nM | CCOC(=O)c1sc(Nc2snc(C)c2C(=O)Nc2ccccc2CC)nc1C [Example 26, Ethyl 2-({4-[(2-ethylphenyl)carbamoyl]-3-methyl-1,2-thiazol-5-yl}amino)-4-methyl-1,3-thiazole-5-carboxylate]
19 | 56 nM | 28 nM | Cc1nsc(Nc2cnc3ccccc3n2)c1C(=O)Nc1ccc(F)c(F)c1 [Example 50, N-(3,4-Difluorophenyl)-3-methyl-5-(quinoxalin-2-ylamino)-1,2-thiazole-4-carboxamide]
20 | 340 nM | 210 nM | Cc1nsc(Nc2cncc(C(=O)N3CCOCC3)n2)c1C(=O)Nc1ccc(F)c(F)c1 [Example 107, N-(3,4-Difluorophenyl)-3-methyl-5-{[6-(morpholin-4-ylcarbonyl)pyrazin-2-yl]amino}-1,2-thiazole-4-carboxamide]
21 | 210 nM | 260 nM | COc1ccc(NC(=O)c2c(C)nsc2Nc2cnc3cccc(C)c3n2)cn1 [Example 22, N-(6-methoxypyridin-3-yl)-3-methyl-5-[(8-methylquinoxalin-2-yl)amino]-1,2-thiazole-4-carboxamide]
22 | 270 nM | 2000 nM | COc1ccc(Oc2ccc(NC(=O)c3c(C)nsc3Nc3cc(C#N)ccn3)cn2)cc1 [Example 117, 5-[(4-Cyanopyridin-2-yl)amino]-N-[6-(4-methoxyphenoxy)pyridin-3-yl]-3-methyl-1,2-thiazole-4-carboxamide]
23 | 6500 nM | 11000 nM | CCc1ccccc1NC(=O)c1c(C)nsc1Nc1ncnc2ccccc12 [Example 10, N-(2-Ethylphenyl)-3-methyl-5-(quinazolin-4-ylamino)-1,2-thiazole-4-carboxamide]
24 | 1600 nM | 4800 nM | COc1ccc(Oc2ccc(NC(=O)c3c(C)nsc3Nc3cnc4ccccc4n3)cn2)cc1 [Example 116, N-[6-(4-Methoxyphenoxy)pyridin-3-yl]-3-methyl-5-(quinoxaline-2-ylamino)-1,2-thiazole-4-carboxamide]
25 | 45 nM | 120 nM | Cc1nsc(Nc2cnc3ccccc3n2)c1C(=O)Nc1ccc(Cl)c(F)c1 [Example 40, N-(4-Chloro-3-fluorophenyl)-3-methyl-5-(quinoxalin-2-ylamino)-1,2-thiazole-4-carboxamide]

Row | Compound | IC50 [1] | IC50 [2]
26 | CCc1ccccc1NC(=O)c1c(C)nsc1Nc1cnc2cc(F)ccc2n1 [Example 20, N-(2-Ethylphenyl)-5-[(6-fluoroquinoxalin-2-yl)amino]-3-methyl-1,2-thiazole-4-carboxamide] | 340 nM | 400 nM
